The values below come from paper PMC5402281, “Functional, thermodynamics, structural and biological studies of in silico-identified inhibitors of Mycobacterium tuberculosis enoyl-ACP(CoA) reductase enzyme” (Scientific Reports, 2017).

The structures appear in SMILES notation. Where “and” joins values, the source holds several entries; their conditions need not be identical. Equal values may be shown once. Read-outs that look alike come from different tables or passages of the source.

One series has as its system M. tuberculosis H37Rv. Put plainly: microbe, parasite or virus in culture. The following applies: Mycobacterium tuberculosis. It counts as cell-based.
Another series in a line: in vitro. It counts as cell-based, murine. The conditions noted are these: mouse. Here is the method:
Cellular viability determination after incubation with the test compounds (Labio_16 and Labio_17) was performed essentially as described elsewhere. Briefly, Vero (and Hacat/RAW) cells were grown in DMEM media supplemented with 10% inactivated fetal bovine serum and 1% penicillin-streptomycin. The cells were maintained in culture bottles at 37 °C in humidified atmosphere with 5% CO2. Cells were seeded at 3 × 10^3 cells per well (for Hacat/RAW or Vero) in a 96-well microtiter plate and incubated for 24 hours to adhere. Medium was carefully aspirated and replaced with 90 μL DMEM, and 10 μL of stocks of the chemical compounds were added to a final concentration of 20 μM (DMSO 2.0%, v/v). After 72 h at 37 °C under 5% of CO2, the cultures were incubated with 3-(4,5-dimethylthiazol-2-yl)-2,5-diphenyltetrazolium bromide (MTT) (1 mg mL^−1) for 3 h. The formazan crystals were dried at room temperature for at least 24 h and dissolved in DMSO. The absorbance was measured at 595 nm (Spectra Max M2e, Molecular Devices, USA). The percentage of cell viability for treated groups was reported considering the control wells (DMSO 0.5%-treated) as 100% of cell viability: cell viability (%) = (absorbance of treated wells/absorbance of control wells) x 100. Data are expressed as mean of cell viability ± standard error of mean of three independent experiments performed in triplicate.

A further series concerns the target T1, MtInhA (Mycobacterium tuberculosis, UniProt P9WGR1).
T1 construct: made in house
Put plainly: MtInhA enzyme inhibition by steady-state kinetics (NADH oxidation at 340 nm). It counts as biochemical. The following applies: for Ki: EI complex; for mode of inhibition with respect to NADH / mode of inhibition with respect to DD-CoA: Lineweaver-Burk plot. How it is done:
In order to assess the relative potency of the compounds, inhibition studies were performed by steady-state kinetic studies using a UV-2550 UV/Visible spectrophotometer (Shimadzu^©), monitoring the NADH oxidation at 340 nm (εβ-NADH = […]), in the forward direction. Experiments were performed at 25 °C, in 100 mM Pipes pH 7.0 and were started with the addition of the 2.2 μM MtInhA to a total reaction volume of 500 μL, and monitoring the change in absorbance for 1 min. […] This is needed as IC50 and classical competitive, non-competitive and uncompetitive inhibition modes follow a rapid equilibrium process. Accordingly, MtInhA (2.2 μM) was pre-incubated with inhibitor (10 μM), aliquots were taken at different times and added to the reaction mixture containing NADH (60 μM) and DD-CoA (45 μM), and initial velocity measurements were plotted as a function of time of pre-incubation[6]. Control experiments were carried out pre-incubating MtInhA (2.2 μM) with DMSO (5%) in the absence of inhibitors, and initial velocity measured as a function of time of pre-incubation[6].
The IC50 value, which defines the concentration of inhibitor required to […], was calculated for each compound. The maximal rate for the enzyme reaction was determined in the absence of inhibitor, in the presence of fixed non-saturating concentration of NADH (60 μM ≅ Km) and DD-CoA (45 μM ≅ Km)[10][11][14]. The reaction velocity was analyzed as the percentage of inhibition as a function of inhibitor concentration and data were fitted to Eq 1.
The most promising compounds were further evaluated to assess the inhibition profile and to determine the inhibition constant (Ki). Initial rates were measured as a function of NADH concentration (10–160 μM) at fixed non-saturating DD-CoA concentration (45 μM) and fixed-varied inhibitor concentrations (0.5–120 μM). The Ki values towards NADH were calculated using the uncompetitive equation (Eq. 2) for compounds Labio_6 and Labio_16, in which [I] is the inhibitor concentration, [S] is the substrate concentration, Km and Vmax are, respectively, the Michaelis-Menten constant and maximum velocity, and Kii is the overall inhibition constant for the ESI complex. The Ki of Labio_03 was determined previously.
For compounds Labio_2, Labio_11, Labio_15 and Labio_17, the Ki values with respect to NADH were calculated using Eq. 3, which describes a non-competitive inhibition, where [I] is the inhibitor concentration, [S] is the substrate concentration, Km and Vmax are, respectively, the Michaelis-Menten constant and maximum velocity, Kii is the overall inhibition constant for the ESI complex and Kis is the overall inhibition constant for the EI complex.
Inhibition studies were also carried out in the presence of fixed non-saturating concentration of NADH (60 μM) and fixed-varied inhibitor concentrations (0.5–120 μM), when DD-CoA was the variable substrate (15–135 μM). For compounds Labio_2, Labio_6, and Labio_16, the inhibition constants for the DD-CoA substrate were determined using Eq. 3 for the non-competitive mode of inhibition. For compounds Labio_11, Labio_15 and Labio_17, the Ki for this substrate were calculated from data fitting to the equation for competitive inhibition (Eq. 4), in which [I] is the inhibitor concentration, [S] is the substrate concentration, Km and Vmax are, respectively, the Michaelis-Menten constant and maximum velocity, and Kis is the overall inhibition constant for the EI complex.

Series [1] addresses T2, MtInhA:NADH binary complex (Mycobacterium tuberculosis, UniProt P9WGR1).
T2 construct: made in house
Put plainly: biochemical. The conditions noted are these: for ΔG: estimated from ΔH and ΔS (Eq. 7); for ΔH / ΔS: van't Hoff analysis, 15–30 °C. It counts as binding.

The mark [2] stands for this setting: 216 h, 7 days + 48 h resazurin, read-out: MIC H37Rv.
Where [3] appears, read: conversion of μg mL^−1 value, read-out: MIC H37Rv converted to.
Setting [4] is: Ki DD-CoA Kis, varied DD-CoA 15–135 μM, fixed NADH 60 μM.
Where [5] appears, read: varied NADH 10–160 μM, fixed DD-CoA 45 μM, ESI complex.

T1 sequence (P9WGR1 whole entry, looked up): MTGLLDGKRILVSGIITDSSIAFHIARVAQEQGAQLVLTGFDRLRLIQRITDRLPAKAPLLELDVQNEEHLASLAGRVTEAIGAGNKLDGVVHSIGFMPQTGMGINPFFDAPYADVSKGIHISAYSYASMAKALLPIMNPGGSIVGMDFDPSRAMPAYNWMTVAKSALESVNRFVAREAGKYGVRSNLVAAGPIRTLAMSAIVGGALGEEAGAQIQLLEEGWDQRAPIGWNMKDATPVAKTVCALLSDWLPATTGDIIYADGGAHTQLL
T2 sequence (P9WGR1 whole entry, looked up, one chain of several): as the sequence (P9WGR1 whole entry, looked up) above

As for `Cc1ccccc1OCc1nc(-c2ccc(NC(=O)c3cccs3)cc2)no1` [Labio_16], the MIC in the series on M. tuberculosis H37Rv (setting [2]) came to 2.5 µg/mL; in the series on M. tuberculosis H37Rv (setting [3]), 6.4 µM. This compound registered a viability at 72 h, 20 µM in “in vitro” of 91 ± 1%. In addition, at MtInhA, the IC50 worked out at 24 ± 2 µM. Besides, the affinity at MtInhA (setting [4]) corresponds to a Ki of 13 ± 1 µM. For the same compound, the “mode of inhibition with respect to NADH” value at MtInhA (fixed DD-CoA 45 μM) was “uncompetitive”. Moreover, the “mode of inhibition with respect to DD-CoA” value on MtInhA (fixed NADH 60 μM) is recorded as “non-competitive”. The “Ki DD-CoA Kii” value at MtInhA (varied DD-CoA 15–135 μM, fixed NADH 60 μM, ESI complex) is 8 ± 3 µM. Besides, at MtInhA (setting [5]), the “Ki NADH Kii” value came out at 7 ± 1 µM. For the same compound, the dissociation constant (Kd) in series [1] (15 °C) stood at 0.9 ± 0.2 µM; in series [1] (20 °C) it was 1.2 ± 0.1 µM; in series [1] (25 °C (298.15 K)) it was 1.5 ± 0.2 µM; in series [1] (30 °C), 2 ± 0.1 µM. Moreover, the ΔG in series [1] was -8.0 kcal/mol and -8.0 ± 3.6 kcal/mol. The ΔH in series [1] was -9.4 kcal/mol and -9.4 ± 06 kcal/mol. Moreover, in series [1], the ΔS was −4.8 cal.mol^−1.K^−1 and −4.8 ± 2.2 cal.mol^−1.K^−1.

For the compound `CCOC(=O)c1ccc2nc(C)cc(Nc3ccc(N4CCCCC4)cc3)c2c1` [Labio_17], the MIC in the series with M. tuberculosis H37Rv (setting [2]) was found to be 5 µg/mL. For the same compound, the MIC with M. tuberculosis H37Rv (setting [3]) is 12.8 µM. In the series “in vitro”, this compound had a viability at 72 h, 20 µM of 98 ± 2%. This compound registered an IC50 at MtInhA of 20 ± 3 µM. Besides, the Ki on MtInhA (setting [4]) came to 6.3 ± 0.7 µM. Further, affinity on MtInhA (Ki NADH Kis, varied NADH 10–160 μM, fixed DD-CoA 45 μM) was put at a Ki of 8 ± 3 µM. At MtInhA (fixed DD-CoA 45 μM), the “mode of inhibition with respect to NADH” value is on record as “non-competitive”. Besides, on MtInhA (fixed NADH 60 μM), the “mode of inhibition with respect to DD-CoA” value is “competitive”. Also, the “Ki NADH Kii” value on MtInhA (setting [5]) was 8 ± 1 µM. The Kd in series [1] (25 °C (298.15 K)) was 7.2 ± 0.5 µM. For the same compound, in series [1], the ΔG was -7.1 ± 0.8 kcal/mol, the ΔH is -23.3 ± 1.9 kcal/mol and the ΔS is reported as −54.5 ± 6.5 cal.mol^−1.K^−1.

As usually defined, the viability is the share of living cells, or the viability signal relative to a control. A lower viability goes with a greater loss of cells. What is called IC50 is the concentration at which inhibition is half-maximal. Low values mean higher potency, high ones lower potency. Usually Ki stands for the dissociation constant of the complex between target and ligand, obtained from inhibition or displacement. Usually Kd stands for the equilibrium constant for the complex coming apart. A lower Kd goes with higher affinity.
